Eleven compounds from patent US20160355530A1, “HEPATITIS C INHIBITORS AND USES THEREOF” (AbbVie Inc., priority 2010, published 2016) can be followed below.

Each structure is given as a SMILES string. Like-named read-outs stand apart in the source and are kept apart here.

Test [1] has as its system HCV NS5B polymerase 1a-H77-C316Y. As to the kind of experiment: biochemical. Conditions: ratio of enzyme IC50s, 1a H77-C316Y / 1a H77. Also noted: species or system HCV genotype 1a. A digest of the protocol: (§1)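 E. coli-expressed NS5B (residues 1-570, His-tagged) transcribed a 2.1 kb HCV 1b negative-strand 3′-end RNA template (5 nM) with 20 μM CTP, 20 μM ATP and 0.284 μM [3H]UTP for 3 h at 30° C. Spermine-precipitated RNA was filter-captured and counted by scintillation; IC50 from nonlinear regression.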

Test [2] deals with T1, HCV NS5B polymerase 1a-H77 (Hepatitis C virus genotype 1a, UniProt P27958).
T1 construct: six-histidine tag; made in house; host or cells: E. coli
T1 sequence (P27958 2421-2990): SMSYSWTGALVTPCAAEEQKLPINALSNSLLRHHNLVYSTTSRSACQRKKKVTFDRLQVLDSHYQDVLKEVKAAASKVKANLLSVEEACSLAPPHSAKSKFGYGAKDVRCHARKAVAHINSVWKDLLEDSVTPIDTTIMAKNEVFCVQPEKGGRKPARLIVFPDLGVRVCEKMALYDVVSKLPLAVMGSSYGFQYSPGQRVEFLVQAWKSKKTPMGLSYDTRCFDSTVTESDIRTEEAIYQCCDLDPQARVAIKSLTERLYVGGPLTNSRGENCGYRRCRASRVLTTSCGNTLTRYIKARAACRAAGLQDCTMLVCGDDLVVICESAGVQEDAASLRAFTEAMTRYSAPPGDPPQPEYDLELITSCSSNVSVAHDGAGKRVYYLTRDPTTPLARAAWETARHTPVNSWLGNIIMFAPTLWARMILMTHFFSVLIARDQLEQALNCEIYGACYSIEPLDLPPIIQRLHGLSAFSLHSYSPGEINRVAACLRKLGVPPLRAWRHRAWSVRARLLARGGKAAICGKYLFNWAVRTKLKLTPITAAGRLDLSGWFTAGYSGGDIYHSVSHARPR
As to the kind of experiment: biochemical. Also noted: species or system HCV genotype 1a. Conditions: enzyme, strain 1a H77; read-out: HCV Polymerase Strain 1a H77 IC50. A digest of the protocol: as §1

The target of test [3] is T2, HCV NS5B polymerase 1a-H77-C316Y (Hepatitis C virus genotype 1a, UniProt P27958, C2736Y).
T2 construct: six-histidine tag; made in house; host or cells: E. coli
T2 sequence (P27958 2421-2990 C2736Y): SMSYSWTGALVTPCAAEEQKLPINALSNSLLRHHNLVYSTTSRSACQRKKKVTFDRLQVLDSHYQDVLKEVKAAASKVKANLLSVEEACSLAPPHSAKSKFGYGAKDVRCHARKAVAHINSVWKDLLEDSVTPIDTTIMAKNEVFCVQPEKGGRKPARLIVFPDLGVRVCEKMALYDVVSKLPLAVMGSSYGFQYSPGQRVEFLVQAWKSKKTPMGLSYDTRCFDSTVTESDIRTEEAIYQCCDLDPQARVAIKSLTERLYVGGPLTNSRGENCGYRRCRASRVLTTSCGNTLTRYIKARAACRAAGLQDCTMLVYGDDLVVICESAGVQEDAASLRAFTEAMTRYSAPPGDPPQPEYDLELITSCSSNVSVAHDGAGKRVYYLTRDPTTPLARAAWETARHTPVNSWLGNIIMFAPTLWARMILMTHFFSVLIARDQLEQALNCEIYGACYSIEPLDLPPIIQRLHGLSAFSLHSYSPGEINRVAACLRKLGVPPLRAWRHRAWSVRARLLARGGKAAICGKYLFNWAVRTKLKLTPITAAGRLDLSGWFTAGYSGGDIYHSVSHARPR
Nature of the test: biochemical. Also noted: species or system HCV genotype 1a. A digest of the protocol: as §1

The subject of test [4] is HCV 1b-BB7 subgenomic replicon. Nature of the test: microbe, parasite or virus in culture. The format is cell-based, HCV genotype 1b. Conditions: Hepatitis C virus, stable replicon. For orientation: Replicon systems follow genome replication, usually without infectious particles.
Test [5] has as its target T3, HCV NS5B polymerase 1b BK strain (Hepatitis C virus genotype 1b, UniProt P26663).
T3 construct: six-histidine tag; made in house; host or cells: E. coli
Nature of the test: HCV NS5B polymerase enzymatic inhibition assay, strain 1b BK. The format is biochemical. Conditions: enzyme, strain 1b BK; read-out: HCV Polymerase Strain 1b BK IC50. An outline of the steps: as §1

In test [6] the test system is HCV 1a-H77 subgenomic replicon. As to the kind of experiment: microbe, parasite or virus in culture. The format is cell-based, HCV genotype 1a. Conditions: Hepatitis C virus, stable replicon.
Where [7] appears, read: strain 1b BB7, 5% FBS + 40% human plasma, read-out: 1b BB7 5% FBS + 40% Human Plasma EC50.
Setting [8] is: strain 1b BB7, 5% FBS, no human plasma, read-out: 1b BB7 5% FBS EC50.
Setting [9] is: strain 1b BB7, 5% FBS, read-out: 1b BB7 5% FBS EC50.
The mark [10] stands for this setting: 5% FBS, absence of human plasma, read-out: Stable Replicon 1a H77 5% FBS EC50.
Where [11] appears, read: strain 1a H77, 5% FBS + 40% human plasma, read-out: 1a H77 5% FBS + 40% Human Plasma EC50.
Setting [12] is: strain 1a H77, 5% FBS, no human plasma, read-out: 1a H77 5% FBS EC50.
Where [13] appears, read: strain 1a H77, 5% FBS, read-out: 1a H77 5% FBS EC50.

T3 sequence (P26663 2420-2989): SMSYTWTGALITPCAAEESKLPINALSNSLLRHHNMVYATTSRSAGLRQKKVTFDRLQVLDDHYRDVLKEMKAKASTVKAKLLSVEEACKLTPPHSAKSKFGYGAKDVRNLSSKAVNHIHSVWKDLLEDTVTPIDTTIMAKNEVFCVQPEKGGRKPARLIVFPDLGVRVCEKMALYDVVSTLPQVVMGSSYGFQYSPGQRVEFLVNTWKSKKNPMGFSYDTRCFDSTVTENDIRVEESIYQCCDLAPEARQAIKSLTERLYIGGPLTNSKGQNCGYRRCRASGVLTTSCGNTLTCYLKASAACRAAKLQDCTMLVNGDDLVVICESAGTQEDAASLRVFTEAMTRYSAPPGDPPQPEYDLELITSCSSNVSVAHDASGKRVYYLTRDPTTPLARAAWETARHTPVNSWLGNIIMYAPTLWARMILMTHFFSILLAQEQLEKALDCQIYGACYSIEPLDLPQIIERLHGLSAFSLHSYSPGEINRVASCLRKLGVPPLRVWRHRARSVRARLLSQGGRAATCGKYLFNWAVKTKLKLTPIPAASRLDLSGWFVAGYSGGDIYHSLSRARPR

Usually IC50 stands for the concentration that gives 50% inhibition. As a reminder, the EC50 is the concentration giving half of the maximal effect. Take `COC(=O)CCCN(c1cc2oc(-c3ccc(F)cc3)c(-c3ncc[nH]3)c2cc1C1CC1)S(C)(=O)=O` [Example 68, methyl 4-{[5-cyclopropyl-2-(4-fluorophenyl)-3-(1H-imidazol-2-yl)-1-benzofuran-6-yl](methylsulfonyl)amino}butanoate]: in test [1], the “C316Y/1a Fold Resistance” value was 17 fold. The IC50 was found to be 5.9 nM in test [2], 103 nM in test [3] and 20 nM in test [5]. The EC50 in test [4] (setting [7]) turned out to be 496 nM; in test [4] (setting [8]) it was 62 nM; in test [4] (setting [9]), 62 nM; in test [6] (setting [10]), 57 nM; in test [6] (setting [11]) it was 1210 nM; in test [6] (setting [12]), 57 nM. Besides, the EC50 in test [6] (setting [13]) turned out to be 57 nM.

On to `CS(=O)(=O)N(CCC1CCCCC1)c1cc2oc(-c3ccc(F)cc3)c(-c3ncc[nH]3)c2cc1C1CC1` [Example 72, N-(2-cyclohexylethyl)-N-[5-cyclopropyl-2-(4-fluorophenyl)-3-(1H-imidazol-2-yl)-1-benzofuran-6-yl]methanesulfonamide], for which the “C316Y/1a Fold Resistance” value in test [1] was 11 fold. Further, the half-inhibitory concentration (IC50) came to 14.3 nM in test [2], 164 nM in test [3] and 46 nM in test [5]. The EC50 in test [4] (setting [7]) is 2210 nM; in test [4] (setting [8]) it was 61 nM; in test [4] (setting [9]), 61 nM; in test [6] (setting [10]), 73.7 nM; in test [6] (setting [11]), 3390 nM; in test [6] (setting [12]), 73.7 nM. The EC50 in test [6] (setting [13]) is 73.7 nM.

For `CS(=O)(=O)N(CC1CCCO1)c1cc2oc(-c3ccc(F)cc3)c(-c3ncc[nH]3)c2cc1C1CC1` (stereo not shown) [Example 75, N-[5-cyclopropyl-2-(4-fluorophenyl)-3-(1H-imidazol-2-yl)-1-benzofuran-6-yl]-N-(tetrahydrofuran-2-ylmethyl)methanesulfonamide], in test [1], the “C316Y/1a Fold Resistance” value was found to be 247 fold. For the same compound, the IC50 is 6.5 nM in test [2], 1600 nM in test [3] and 60 nM in test [5]. Besides, the EC50 came out at 1160 nM in test [4] (setting [7]); 45 nM in test [4] (setting [8]); 45 nM in test [4] (setting [9]); 69.6 nM in test [6] (setting [10]); 1080 nM in test [6] (setting [11]); 69.6 nM in test [6] (setting [12]). Also, the EC50 in test [6] (setting [13]) worked out at 69.6 nM.

Turning to `CC(C)=CCCN(c1cc2oc(-c3ccc(F)cc3)c(-c3ncc[nH]3)c2cc1C1CC1)S(C)(=O)=O` [Example 76, N-[5-cyclopropyl-2-(4-fluorophenyl)-3-(1H-imidazol-2-yl)-1-benzofuran-6-yl]-N-(4-methylpent-3-en-1-yl)methanesulfonamide], in test [1], the “C316Y/1a Fold Resistance” value came out at 22 fold. Further, the IC50 in test [2] came to 5.9 nM; in test [3], 131 nM; in test [5], 23 nM. The EC50 was found to be 661 nM in test [4] (setting [7]); 26.9 nM in test [4] (setting [8]); 26.9 nM in test [4] (setting [9]); 48.5 nM in test [6] (setting [10]); 3960 nM in test [6] (setting [11]); 48.5 nM in test [6] (setting [12]). The EC50 in test [6] (setting [13]) came out at 48.5 nM.

On to `Cc1ncsc1CCN(c1cc2oc(-c3ccc(F)cc3)c(-c3ncc[nH]3)c2cc1C1CC1)S(C)(=O)=O` [Example 78, N-[5-cyclopropyl-2-(4-fluorophenyl)-3-(1H-imidazol-2-yl)-1-benzofuran-6-yl]-N-[2-(4-methyl-1,3-thiazol-5-yl)ethyl]methanesulfonamide], for which, in test [1], the “C316Y/1a Fold Resistance” value is reported as 27 fold. Besides, the IC50 is 4 nM in test [2], 107 nM in test [3] and 13 nM in test [5]. Further, the EC50 stood at 514 nM in test [4] (setting [7]); 15.7 nM in test [4] (setting [8]); 15.7 nM in test [4] (setting [9]); 38.5 nM in test [6] (setting [10]); 1060 nM in test [6] (setting [11]); 38.5 nM in test [6] (setting [12]). Moreover, in test [6] (setting [13]), the EC50 is 38.5 nM.

In the case of `CS(=O)(=O)N(CCN1CCCC1)c1cc2oc(-c3ccc(F)cc3)c(-c3ncc[nH]3)c2cc1C1CC1` [Example 81, N-[5-cyclopropyl-2-(4-fluorophenyl)-3-(1H-imidazol-2-yl)-1-benzofuran-6-yl]-N-[2-(pyrrolidin-1-yl)ethyl]methanesulfonamide], the “C316Y/1a Fold Resistance” value in test [1] came out at 151 fold. For the same compound, the IC50 in test [2] amounted to 31.8 nM; in test [3], 4800 nM; in test [5], 137 nM. The EC50 came to 129 nM in test [4] (setting [7]); 36.9 nM in test [4] (setting [8]); 36.9 nM in test [4] (setting [9]); 205 nM in test [6] (setting [10]); 732 nM in test [6] (setting [11]); 205 nM in test [6] (setting [12]). Also, in test [6] (setting [13]), the EC50 is 205 nM.

Consider `CS(=O)(=O)N(CCCC(=O)O)c1cc2oc(-c3ccc(F)cc3)c(-c3ncc[nH]3)c2cc1C1CC1` [Example 89, 4-{[5-cyclopropyl-2-(4-fluorophenyl)-3-(1H-imidazol-2-yl)-1-benzofuran-6-yl](methylsulfonyl)amino}butanoic acid], for which the “C316Y/1a Fold Resistance” value in test [1] amounted to 15 fold. For the same compound, the IC50 in test [2] came out at 5 nM; in test [3], 77 nM; in test [5], 65 nM. Moreover, the EC50 in test [4] (setting [7]) was 376 nM; in test [4] (setting [8]), 91.5 nM; in test [4] (setting [9]), 91.5 nM; in test [6] (setting [10]) it was 269 nM; in test [6] (setting [11]) it was 2440 nM; in test [6] (setting [12]) it was 269 nM. In test [6] (setting [13]), the EC50 was determined as 269 nM.

As to `CS(=O)(=O)N(CC(O)CO)c1cc2oc(-c3ccc(F)cc3)c(-c3ncc[nH]3)c2cc1C1CC1` (stereo not shown) [Example 93, N-[5-cyclopropyl-2-(4-fluorophenyl)-3-(1H-imidazol-2-yl)-1-benzofuran-6-yl]-N-(2,3-dihydroxypropyl)methanesulfonamide], the “C316Y/1a Fold Resistance” value in test [1] stood at 320 fold. The figures for the concentration for half-maximal inhibition (IC50) in test [2], in test [3] and in test [5] were 5 nM, 1600 nM and 117 nM, respectively. Also, the EC50 was 880 nM in test [4] (setting [7]); 63.4 nM in test [4] (setting [8]); 63.4 nM in test [4] (setting [9]); 83.2 nM in test [6] (setting [10]); 915 nM in test [6] (setting [11]); 83.2 nM in test [6] (setting [12]). For the same compound, the EC50 in test [6] (setting [13]) was found to be 83.2 nM.

Turning to `CC(C)(O)C(O)CN(c1cc2oc(-c3ccc(F)cc3)c(-c3ncc[nH]3)c2cc1C1CC1)S(C)(=O)=O` (stereo not shown) [Example 94, N-[5-cyclopropyl-2-(4-fluorophenyl)-3-(1H-imidazol-2-yl)-1-benzofuran-6-yl]-N-(2,3-dihydroxy-3-methylbutyl)methanesulfonamide], the “C316Y/1a Fold Resistance” value in test [1] is given as 107 fold. The IC50 in test [2] is 9.4 nM; in test [3], 1000 nM; in test [5] it was 28 nM. Also, the EC50 in test [4] (setting [7]) came to 360 nM; in test [4] (setting [8]) it was 76.3 nM; in test [4] (setting [9]), 76.3 nM; in test [6] (setting [10]), 60.2 nM; in test [6] (setting [11]), 599 nM; in test [6] (setting [12]), 60.2 nM. Also, the EC50 in test [6] (setting [13]) is 60.2 nM.

As to `CC(O)CN(c1cc2oc(-c3ccc(F)cc3)c(-c3ncc[nH]3)c2cc1C1CC1)S(C)(=O)=O` (stereo not shown) [Example 98, N-[5-cyclopropyl-2-(4-fluorophenyl)-3-(1H-imidazol-2-yl)-1-benzofuran-6-yl]-N-(2-hydroxypropyl)methanesulfonamide], the “C316Y/1a Fold Resistance” value in test [1] is 131 fold. Also, the figures for the IC50 in test [2], in test [3] and in test [5] were 24.5 nM, 3200 nM and 240 nM, respectively. The EC50 in test [4] (setting [7]) came to 2060 nM; in test [4] (setting [8]) it was 136 nM; in test [4] (setting [9]), 136 nM; in test [6] (setting [10]), 158 nM; in test [6] (setting [11]), 1630 nM; in test [6] (setting [12]), 158 nM. The EC50 in test [6] (setting [13]) turned out to be 158 nM.

As for `CS(=O)(=O)N(CCCC(=O)N1CCOCC1)c1cc2oc(-c3ccc(F)cc3)c(-c3ncc[nH]3)c2cc1C1CC1` [Example 103, N-[5-cyclopropyl-2-(4-fluorophenyl)-3-(1H-imidazol-2-yl)-1-benzofuran-6-yl]-N-[4-(morpholin-4-yl)-4-oxobutyl]methanesulfonamide], the “C316Y/1a Fold Resistance” value in test [1] was 50 fold. Moreover, the IC50 came to 7.9 nM in test [2], 400 nM in test [3] and 55 nM in test [5]. The EC50 in test [4] (setting [7]) was 114 nM; in test [4] (setting [8]), 13.9 nM; in test [4] (setting [9]) it was 13.9 nM; in test [6] (setting [10]) it was 44.6 nM; in test [6] (setting [11]), 563 nM; in test [6] (setting [12]), 44.6 nM. Moreover, the concentration giving a half-maximal response (EC50) in test [6] (setting [13]) was found to be 44.6 nM.
